The source of these data is patent US6511997B1, “Aminopyrazole derivatives” (Teikoku Hormone Mfg. Co., Ltd., priority 1998, dated 2003).

By melting point is commonly meant the temperature of the solid-liquid transition.

SMILES strings stand for the structures.

`Cn1nc(-c2ccc(F)cc2)c(-c2ccncc2)c1NC(=O)Cc1ccc(Br)cc1` [Example 59, 5-(4-Bromophenylacetylamino)-3-(4-fluorophenyl)-1-methyl-4-(4-pyridyl)pyrazole] displayed a melting point of 199.8 to 202.1 °C. The value for `Cc1ccccc1CC(=O)Nc1c(-c2ccncc2)c(-c2ccc(F)cc2)nn1C` [Example 67, 3-(4-Fluorophenyl)-1-methyl-5-(2-methylphenylacetylamino)-4-(4-pyridyl)pyrazole] was 197.6 to 200.5 °C. `Cn1nc(-c2ccc(F)cc2)c(-c2ccncc2)c1NC(=O)Cc1ccc(OCc2ccccc2)cc1` [Example 70, 5-(4-Benzyloxyphenylacetylamino)-3-(4-fluorophenyl)-1-methyl-4-(4-pyridyl)pyrazole] gave a melting point of 147.8 to 150.1 °C.
